Reference: paper PMC8624998, “Synthesis and Antiproliferative Evaluation of 3-Chloroazetidin-2-ones with Antimitotic Activity: Heterocyclic Bridged Analogues of Combretastatin A-4” (Pharmaceuticals, 2021)
Where two headings read alike, the source gives them in different places.

Key:
Assay type in all cases: cell-based
MDA-MB-231 cells = assay: Cell viability assay, antiproliferative activity; details: Homo sapiens, MDA-MB-231, 72 h, read-out: Antiproliferative Activity IC50 MDA-MB-231, 72 h
Description: Selected β-lactam compounds were next evaluated in the triple negative cell line MDA-MB-231 (Table 4). […] These cancers are difficult to treat since they are generally not responsive to hormone therapies such as the selective oestrogen receptor modulator (SERM) tamoxifen, or aromatase inhibitors such as anastrozole, or to the monoclonal antibody Herceptin, which targets the HER2 receptor. There are fewer treatment options available for TNBC compared with ER+, PR+ and HER2+ breast cancers and the prognosis is poorer. […]. The human breast carcinoma cell line MCF-7 was purchased from the European Collection of Animal Cell Cultures (ECACC). Triple negative breast cancer Hs578T cells and its invasive variant Hs578Ts(i)8 were a kind gift from Dr. Susan McDonnell, School of Chemical and Bioprocess Engineering, University College Dublin. U266 cells were a gift from Dr. Tony McElligott, School of Medicine, St James’s Hospital, Trinity College Dublin. HT-29 cells were purchased from the European Collection of Cell Cultures (originating from a human adenocarcinoma of the colon). The human breast carcinoma cell line MDA-MB-231 and the HL-60 cells derived from a patient with acute myeloid leukaemia were both obtained from ECACC (Salisbury, UK). The SW-480 cells were a kind gift from Dr. Brian Flood, School of Biochemistry and Immunology, Trinity College Dublin. HEK-293T (normal epithelial embryonic kidney cells) were cultured in Dulbecco’s Modified Eagle’s Medium (DMEM) with GlutaMAXTM-I in the absence of non-essential amino acids. Human breast cancer MCF-7 cells and multiple myeloma U266 cells were cultured in Minimum Essential Media (MEM) with GlutaMAX™-I, supplemented with 1% (v/v) non-essential amino acids, 10% 2(v/v) foetal bovine serum (FBS) and 1% (v/v) penicillin/streptomycin 5000 U/mL. MDA-MB-231 cells were maintained in DMEM supplemented with 10% (v/v) foetal bovine serum, 2 mM L-glutamine and 100 μg/mL penicillin/streptomycin (complete medium). Colon cancer HT-29 and SW-480 and triple negative breast cancer Hs578T and its invasive variant Hs578T8i were cultured in DMEM with GlutaMAX™-I, with the same supplement in the absence of non-essential amino acids. Leukaemia HL-60 cancer cells were cultured in Roswell Park Memorial Institute Media (RPMI-1640) with GlutaMAX™-I, supplemented with 10% FCS media, and 100 μg/mL penicillin/streptomycin as above. Cell numbers were monitored using a haemocytometer. Cell culture flasks were incubated in a humidified incubator (5% CO2/95% air) at 37 °C. All cell lines were sub-cultured three times per week with trypsinisation using TrypLE Express (1X) required for adherent cell lines.
. All stock solutions and serial dilution in ethanol/DMSO were stored at -20 °C. All cells were seeded at a density of 2.5 × 10^4 cells/mL in a 96-well plate (200 μL per well). The cells were incubated in a […] atmosphere at 37 °C for 24 h, then treated with test compound (2 μL of stock solutions per 200-microlitre well) in ethanol to obtain a concentration range of 1 nM–200 μM for the study. The plates were then re-incubated for a further 72 h. Control wells contained an equivalent volume of the vehicle ethanol or DMSO (1% v/v). MTT cell viability assay: The culture medium was removed, and the cells were washed with phosphate buffered saline (PBS, […]). MTT (dissolved in PBS, […]) was added to obtain a final concentration of MTT (1 mg/mL). Cells were incubated at 37 °C for 3 h in the dark. Solubilisation was commenced by the addition of DMSO ([…]) and the cells were maintained at 20 °C in the dark for 20 min before reading the absorbance to ensure complete colour diffusion. The absorbance value of control cells (no added compound) was set to 100% cell viability and absorbance versus cell density per well was determined to assess cell viability using Graph-Pad Prism software. […]

NCI-H552 = assay: NCI-60 5 dose screen, NSC Lung Cancer; details: Homo sapiens
HCT-2998 = assay: NCI-60 5 dose screen, Colon Cancer; details: Homo sapiens

| Structure (SMILES) | IC50 (MDA-MB-231 cells; 10e and 11n results from NCI) [nM] | GI50 (NCI-H552; NCI-H552, read-out: GI50) [nM] | GI50 (HCT-2998; HCT-2998, read-out: GI50) [nM] | IC50 (MDA-MB-231 cells) [nM] | GI50 (NCI-H552) [nM] | GI50 (HCT-2998) [nM] |
| --- | --- | --- | --- | --- | --- | --- |
| COc1ccc([C@H]2[C@H](Cl)C(=O)N2c2cc(OC)c(OC)c(OC)c2)cc1 (relative stereo) [Compound 10e trans, Trans-3-chloro-1-(3,4,5-trimethoxyphenyl)-4-(4-methoxyphenyl) azetidin-2-one] | 68.6 | 20.7 | 80.4 | – | – | – |
| COc1ccc(/C=C\c2cc(OC)c(OC)c(OC)c2)cc1O [CA-4, Combretastatin A-4] | 43 | – | – | – | – | – |
| CCSc1ccc(C2C(Br)C(=O)N2c2cc(OC)c(OC)c(OC)c2)cc1 (stereo not drawn) [Compound 16d, 3-Bromo-4-(4-(ethylthio)phenyl)-1-(3,4,5-trimethoxyphenyl)azetidin-2-one] | – | 158 | 673 | – | – | – |
| COc1ccc(C2N(c3cc(OC)c(OC)c(OC)c3)C(=O)C2(Cl)Cl)cc1O (stereo not drawn) [Compound 11n, 3,3-Dichloro-4-(3-hydroxy-4-methoxyphenyl)-1-(3,4,5-trimethoxyphenyl)azetidin-2-one] | – | – | – | 31.6 | 16.4 | 53.4 |
